PubChem BioAssay AID212 (DTP/NCI, 2004)
Values joined by “and” are separate entries in the source; they are usually repeats but may differ in a detail not shown here. Equal entries are not always repeated. Results filed as inconclusive are left out.

System: BDF1 mice, colon carcinoma 38 sc, T/C %
Test: NCI In Vivo Anticancer Drug Screen. Data for tumor model Colon Carcinoma 38 (subcutaneous) in B6D2F1 (BDF1) mice
Procedure, shortened: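 Ratio of survival or tumor size, compound-treated animals relative to vehicle controls, in tumor-bearing mice.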

[1] = endpoint: median tumor weight (est.), dose: 25.0 mg/kg/injection, schedule: Q07DX002 (ip), vehicle: Klucel (hydroxypropylcellulose) (HPC), higher = larger tumour
[2] = endpoint: median tumor weight (est.), dose: 50.0 mg/kg/injection, schedule: Q07DX002 (ip), vehicle: Klucel (hydroxypropylcellulose) (HPC), higher = larger tumour
[3] = endpoint: median tumor weight (est.), dose: 200.0 mg/kg/injection, schedule: Q07DX002 (ip), vehicle: Klucel (hydroxypropylcellulose) (HPC), higher = larger tumour
[4] = endpoint: median tumor weight (est.), dose: 400.0 mg/kg/injection, schedule: Q07DX002 (ip), vehicle: Klucel (hydroxypropylcellulose) (HPC), higher = larger tumour
[5] = endpoint: median tumor weight (est.), dose: 800.0 mg/kg/injection, schedule: Q07DX002 (ip), vehicle: Klucel (hydroxypropylcellulose) (HPC), higher = larger tumour
[6] = endpoint: median tumor weight (est.), dose: 25.0 mg/kg/injection, schedule: Q07DX002 (ip), vehicle: saline, higher = larger tumour

NC(=O)c1ncn(C2OC(CO)C(O)C2O)c1O (stereo not drawn)
T/C [1]: 118 % of control | T/C (endpoint: median tumor weight (est.), dose: 28.0 mg/kg/injection, schedule: Q07DX002 (ip), vehicle: Klucel (hydroxypropylcellulose) (HPC), higher = larger tumour): 51 % of control | T/C [2]: 90 % of control | T/C (endpoint: median tumor weight (est.), dose: 56.0 mg/kg/injection, schedule: Q07DX002 (ip), vehicle: Klucel (hydroxypropylcellulose) (HPC), higher = larger tumour): 48 % of control | T/C (endpoint: median tumor weight (est.), dose: 112.0 mg/kg/injection, schedule: Q07DX002 (ip), vehicle: Klucel (hydroxypropylcellulose) (HPC), higher = larger tumour): 79 % of control | T/C [3]: 114 % of control and 98 % of control | T/C (endpoint: median tumor weight (est.), dose: 225.0 mg/kg/injection, schedule: Q07DX002 (ip), vehicle: Klucel (hydroxypropylcellulose) (HPC), higher = larger tumour): 68 % of control | T/C [4]: 105 % of control and 107 % of control | T/C (endpoint: median tumor weight (est.), dose: 450.0 mg/kg/injection, schedule: Q07DX002 (ip), vehicle: Klucel (hydroxypropylcellulose) (HPC), higher = larger tumour): 61 % of control | T/C [5]: 75 % of control | T/C (endpoint: median tumor weight (est.), dose: 900.0 mg/kg/injection, schedule: Q07DX002 (ip), vehicle: Klucel (hydroxypropylcellulose) (HPC), higher = larger tumour): 61 % of control

COc1cccc2c1C(=O)c1c(O)c3c(c(O)c1C2=O)CC(O)(C(=O)CO)CC3OC1CC(N)C(O)C(C)O1 (stereo not drawn)
T/C (endpoint: median survival time, dose: 41.0 mg/kg/injection, schedule: Q07DX002 (iv), vehicle: saline, higher = longer survival): 93 % of control | T/C (endpoint: median survival time, dose: 64.0 mg/kg/injection, schedule: Q07DX002 (iv), vehicle: saline, higher = longer survival): 104 % of control | T/C (endpoint: median survival time, dose: 100.0 mg/kg/injection, schedule: Q07DX002 (iv), vehicle: saline, higher = longer survival): 122 % of control | T/C (endpoint: median survival time, dose: 155.0 mg/kg/injection, schedule: Q07DX002 (iv), vehicle: saline, higher = longer survival): 124 % of control | T/C (endpoint: median tumor weight (est.), dose: 6.25 mg/kg/injection, schedule: Q07DX002 (ip), vehicle: water, higher = larger tumour): 110 % of control | T/C (endpoint: median tumor weight (est.), dose: 12.5 mg/kg/injection, schedule: Q07DX002 (ip), vehicle: water, higher = larger tumour): 100 % of control | T/C (endpoint: median tumor weight (est.), dose: 20.25 mg/kg/injection, schedule: Q07DX002 (ip), vehicle: saline, higher = larger tumour): 51 % of control | T/C [6]: 81 % of control and 86 % of control | T/C (endpoint: median tumor weight (est.), dose: 25.0 mg/kg/injection, schedule: Q07DX002 (ip), vehicle: water, higher = larger tumour): 100 % of control | T/C (endpoint: median tumor weight (est.), dose: 40.5 mg/kg/injection, schedule: Q07DX002 (ip), vehicle: saline, higher = larger tumour): 123 % of control | T/C (endpoint: median tumor weight (est.), dose: 81.0 mg/kg/injection, schedule: Q07DX002 (ip), vehicle: saline, higher = larger tumour): 52 % of control | T/C (endpoint: median tumor weight (est.), dose: 81.0 mg/kg/injection, schedule: Q07DX002 (ip), vehicle: water, higher = larger tumour): 56 % of control | T/C (endpoint: median tumor weight (est.), dose: 100.0 mg/kg/injection, schedule: Q07DX002 (ip), vehicle: water, higher = larger tumour): 83 % of control | T/C (endpoint: median tumor weight (est.), dose: 162.0 mg/kg/injection, schedule: Q07DX002 (ip), vehicle: saline, higher = larger tumour): 44 % of control | T/C (endpoint: median tumor weight (est.), dose: 200.0 mg/kg/injection, schedule: Q07DX002 (ip), vehicle: saline, higher = larger tumour): 19 % of control | T/C (endpoint: median tumor weight (est.), dose: 200.0 mg/kg/injection, schedule: Q07DX002 (ip), vehicle: water, higher = larger tumour): 53 % of control | T/C (endpoint: median tumor weight (est.), dose: 324.0 mg/kg/injection, schedule: Q07DX002 (ip), vehicle: saline, higher = larger tumour): 14 % of control

Cc1nc(N)nc(N)c1-c1ccc(Cl)c(Cl)c1
T/C (endpoint: median tumor weight (est.), dose: 1.25 mg/kg/injection, schedule: Q07DX002 (ip), vehicle: saline, higher = larger tumour): 106 % of control | T/C (endpoint: median tumor weight (est.), dose: 2.5 mg/kg/injection, schedule: Q07DX002 (ip), vehicle: saline, higher = larger tumour): 81 % of control and 102 % of control | T/C (endpoint: median tumor weight (est.), dose: 5.0 mg/kg/injection, schedule: Q07DX002 (ip), vehicle: saline, higher = larger tumour): 50 % of control and 72 % of control | T/C (endpoint: median tumor weight (est.), dose: 10.0 mg/kg/injection, schedule: Q07DX002 (ip), vehicle: saline, higher = larger tumour): 68 % of control and 69 % of control and 83 % of control | T/C (endpoint: median tumor weight (est.), dose: 10.0 mg/kg/injection, schedule: Q07DX002 (ip), vehicle: suspension in saline, higher = larger tumour): 67 % of control | T/C (endpoint: median tumor weight (est.), dose: 20.0 mg/kg/injection, schedule: Q07DX002 (ip), vehicle: suspension in saline, higher = larger tumour): 46 % of control | T/C (endpoint: median tumor weight (est.), dose: 80.0 mg/kg/injection, schedule: Q07DX002 (ip), vehicle: saline, higher = larger tumour): 55 % of control

N=C(N)CCCCCCCCC(=N)N
T/C (endpoint: median tumor weight (est.), dose: 1.56 mg/kg/injection, schedule: Q07DX002 (ip), vehicle: saline, higher = larger tumour): 102 % of control | T/C (endpoint: median tumor weight (est.), dose: 3.12 mg/kg/injection, schedule: Q07DX002 (ip), vehicle: saline, higher = larger tumour): 88 % of control and 99 % of control | T/C (endpoint: median tumor weight (est.), dose: 6.25 mg/kg/injection, schedule: Q07DX002 (ip), vehicle: saline, higher = larger tumour): 107 % of control | T/C (endpoint: median tumor weight (est.), dose: 12.5 mg/kg/injection, schedule: Q07DX002 (ip), vehicle: saline, higher = larger tumour): 76 % of control | T/C [6]: 112 % of control

CCc1ncnc2cc(OCC3CO3)c(OC)cc12 (stereo not drawn)
T/C [6]: 93 % of control | T/C (endpoint: median tumor weight (est.), dose: 50.0 mg/kg/injection, schedule: Q07DX002 (ip), vehicle: saline, higher = larger tumour): 47 % of control

COc1ccc2ccccc2c1C1NC(=O)c2ccccc2N1 (stereo not drawn)
T/C [1]: 76 % of control | T/C [2]: 93 % of control | T/C (endpoint: median tumor weight (est.), dose: 100.0 mg/kg/injection, schedule: Q07DX002 (ip), vehicle: Klucel (hydroxypropylcellulose) (HPC), higher = larger tumour): 59 % of control | T/C [3]: 52 % of control | T/C [4]: 69 % of control | T/C [5]: 69 % of control
